Results: the NIST ThermoML archive (doi:10.1016/j.fluid.2018.10.006)

Conditions: Fluid (supercritical or subcritical phases), Coaxial cylinder method

CCCCCC [hexane]
thermal conductivity [W/m/K]
Conditions | 509.85 K | 510.36 K
245 kPa | – | 0.0379
1000 kPa | – | 0.03854
2245 kPa | – | 0.04183
2715 kPa | – | 0.04665
2965 kPa | 0.05466 | –
2970 kPa | 0.05502 | –
2975 kPa | 0.05557 | –
2980 kPa | 0.05557 | –
2985 kPa | 0.05595 | –
2990 kPa | 0.05595 | –
2995 kPa | 0.05651 | –
3000 kPa | 0.0569 | –
3005 kPa | 0.05749 | –
3010 kPa | 0.05788 | –
3015 kPa | 0.05829 | –
3020 kPa | 0.05869 | –
3025 kPa | 0.05975 | –
3030 kPa | 0.05975 | –
3035 kPa | 0.05975 | –
3040 kPa | 0.06085 | –
3045 kPa | 0.0613 | –
3050 kPa | 0.0618 | –
3055 kPa | 0.06256 | –
3060 kPa | 0.06305 | –
3065 kPa | 0.06429 | –
3070 kPa | 0.06507 | –
3080 kPa | 0.06696 | –
3085 kPa | 0.06809 | –
3090 kPa | 0.06955 | –
3095 kPa | 0.07139 | –
3100 kPa | 0.07333 | –
3105 kPa | 0.07573 | –
3110 kPa | 0.07753 | 0.06796
3112 kPa | – | 0.06824
3114 kPa | – | 0.06881
3115 kPa | 0.08101 | –
3116 kPa | – | 0.06939
3118 kPa | – | 0.07027
3120 kPa | 0.08569 | 0.07087
3122 kPa | – | 0.07148
3124 kPa | – | 0.07242
3125 kPa | 0.08932 | –
3126 kPa | – | 0.07338
3128 kPa | – | 0.07403
3130 kPa | 0.09098 | 0.0747
3132 kPa | – | 0.07538
3133 kPa | – | 0.07607
3134 kPa | – | 0.07624
3135 kPa | 0.09203 | –
3137 kPa | – | 0.0784
3138 kPa | – | 0.07915
3139 kPa | – | 0.07991
3140 kPa | 0.08826 | 0.08056
3141 kPa | – | 0.08119
3142 kPa | – | 0.08199
3143 kPa | – | 0.08268
3144 kPa | – | 0.0833
3145 kPa | 0.08512 | 0.08393
3146 kPa | – | 0.08457
3147 kPa | – | 0.08501
3148 kPa | – | 0.08552
3150 kPa | 0.0829 | 0.08631
3151 kPa | – | 0.08656
3152 kPa | – | 0.08673
3153 kPa | – | 0.08695
3154 kPa | – | 0.08709
3155 kPa | 0.08149 | 0.087
3156 kPa | – | 0.08691
3157 kPa | – | 0.08682
3158 kPa | – | 0.08656
3159 kPa | – | 0.08634
3160 kPa | 0.07984 | 0.08604
3161 kPa | – | 0.08582
3162 kPa | – | 0.08548
3163 kPa | – | 0.08518
3164 kPa | – | 0.08476
3166 kPa | – | 0.08393
3168 kPa | – | 0.0832
3170 kPa | 0.07755 | 0.08248
3172 kPa | – | 0.08173
3174 kPa | – | 0.08088
3176 kPa | – | 0.08019
3178 kPa | – | 0.07941
3180 kPa | 0.07646 | 0.07883
3182 kPa | – | 0.07826
3184 kPa | – | 0.07767
3186 kPa | – | 0.07716
3188 kPa | – | 0.07654
3190 kPa | 0.07505 | 0.076
3192 kPa | – | 0.07563
3194 kPa | – | 0.07525
3196 kPa | – | 0.07489
3198 kPa | – | 0.07452
3200 kPa | 0.07436 | 0.07416
3202 kPa | – | 0.0738
3204 kPa | – | 0.07362
3206 kPa | – | 0.07337
3208 kPa | – | 0.07309
3210 kPa | 0.07368 | 0.07292
3212 kPa | – | 0.07274
3214 kPa | – | 0.0724
3216 kPa | – | 0.0724
3218 kPa | – | 0.07206
3220 kPa | 0.07319 | 0.07206
3222 kPa | – | 0.07189
3225 kPa | – | 0.07175
3228 kPa | – | 0.07155
3230 kPa | 0.07264 | –
3240 kPa | 0.07251 | –
3250 kPa | 0.07211 | –
3260 kPa | 0.07181 | –
3270 kPa | 0.07177 | –
3280 kPa | 0.07145 | –
3290 kPa | 0.07134 | –
3300 kPa | 0.07091 | –
3310 kPa | 0.07096 | –
3320 kPa | 0.07054 | –
3330 kPa | 0.07035 | –
3340 kPa | 0.06992 | –
3390 kPa | 0.06989 | –
3400 kPa | 0.06989 | –
3450 kPa | 0.06947 | –
3500 kPa | 0.06961 | –
3600 kPa | 0.06975 | –
3800 kPa | 0.07031 | –
4000 kPa | 0.07061 | –
4200 kPa | 0.07105 | –
4400 kPa | 0.07134 | –
4600 kPa | 0.07179 | –
4800 kPa | 0.07215 | –
5000 kPa | 0.07254 | –
5200 kPa | 0.07285 | –
5400 kPa | 0.07315 | –
5600 kPa | 0.07355 | –
5800 kPa | 0.07393 | –
6000 kPa | 0.07421 | –
6200 kPa | 0.07453 | –
6400 kPa | 0.07484 | –
6600 kPa | 0.07514 | –
6800 kPa | 0.07543 | –
7000 kPa | 0.0757 | –
7200 kPa | 0.07596 | –
7400 kPa | 0.07619 | –
7600 kPa | 0.07646 | –
7800 kPa | 0.07673 | –
8000 kPa | 0.07679 | –
8200 kPa | 0.07703 | –
8500 kPa | 0.07741 | –
9000 kPa | 0.07802 | –
9500 kPa | 0.07856 | –
10000 kPa | 0.0791 | –
